In patent EP0942741B1, “LECTIN COMPOSITIONS AND USES THEREOF” (Alizyme Therapeutics Limited, priority 1996, dated 1997):

How the values were obtained:
[1] = Protection of rats from 5-FU chemotherapy by oral PHA (Example 7); assay type: in vivo
Experimental: (§1) 300mg of 5-fluorouracil was stirred in 14ml of distilled water. 1M NaOH was added slowly until the 5-FU had dissolved. The solution was made up to a final volume of 20 ml. The final pH of the solution was 8.3. A dose of 150 mg/kg body weight was administered to the animal by intraperitoneal injection. Immediately after the injection, the rats were offered 15 g of the control diet and food was available ad-libitum for the remainder of the experiment.
Four groups, each consisting of 5 rats were maintained on a precise dietary regime for a period of 7 days (Table 11).
Rats (approx […]) pre-dosed with PHA were offered 10 g of the control diet (Table 1) containing 10% lactalbumin. Each animal was given the equivalent of 20 mg PHA in 0.9% saline by gavage. Rats were offered control diet in two feeds at 1000 & 1700 hours. The amount of food given was strictly paired to the amount of diet eaten by the PHA pre-dosed animals. If the animals were immediately post-dosed with PHA, the lectin was administered two hours post 5-FU injection by gavage. Animals neither pre- or post dosed with PHA were administered with 1 ml 0.9% saline by gavage. After 3 days, animals in three of the groups were administered a dose of 150 mg/kg body weight 5-FU. Body weight of each animal was recorded daily and the average body weight calculated.
At the end of the experiment, the animals were sacrificed and then dissected. The dry weights of the major organs were recorded for each animal and the average weights calcurated.
After 7 days, blood was collected from the animals and both the key molecular and cellular components were analysed.

[2] = Dose range of PHA pre-dosing against 5-FU damage of the gastrointestinal tract (Example 8); assay type: in vivo, rats; details: pair fed, 150 mg/kg/BW 5-FU, day 9
Experimental: as §1
3 groups of rats (5 rats per group) were fed on the standard diet (Table 1) and gavaged daily with either 200, 100 & 50 mg/kg/day PHA for 3 days. The food intake for each rat was recorded daily. A second set of 3 control groups of rats (5 rats per group) were fed on the standard diet and gavaged daily with 1 ml saline for 3 days. Each animal of the control group was pair fed to an animal in the PHA dosed groups. On the morning of the 4th day, each animal was injected with 150 mg/kg bodyweight 5-FU and then fed the standard diet for 6 days. 2 rats were fed on the standard diet ad libitum for 9 days. On the 9th day, the rats were killed and the animals dissected. After freezing in liquid nitrogen, the wet tissue weights were recorded.

[3] = Treatment 2: LA 3d, inject 5-FU (150 mg/kg i.p.), LA 4d, after 7 days
[4] = Treatment 2: LA 3d, inject 5-FU (150 mg/kg i.p.), LA 4d, blood after 7 days
[5] = Paired control 50 mg/kg/day: saline gavage
[6] = Paired control 100 mg/kg/day: saline gavage
[7] = Paired control 200 mg/kg/day: saline gavage

O=c1[nH]cc(F)c(=O)[nH]1 [5-FU, 5-fluorouracil]
Caecum average dry weight [1, 3]: 99 ± 11 mg | Colon average dry weight [1, 3]: 130 ± 11 mg | Ileum average dry weight [1, 3]: 94 ± 11 mg | Jejunum average dry weight [1, 3]: 90 ± 8 mg | Small intestine average dry weight [1, 3]: 509 ± 55 mg | Stomach average dry weight [1, 3]: 140 ± 7 mg | HGB [1, 4]: 12.7 g/100ml | MCH [1, 4]: 17.3 pg | MCHC [1, 4]: 34.3 g/100ml | MCV [1, 4]: 50.4 µm^3 | PLT [1, 4]: 274x10^3 no/mm^3 | WBC [1, 4]: 3x10^3 no/mm^3 | fresh body weight ([1]; Treatment 2: LA 3d, inject 5-FU (150 mg/kg i.p.), LA 4d, column 1 of 8 (day not given)): 102.5 g | fresh body weight ([1]; Treatment 2: LA 3d, inject 5-FU (150 mg/kg i.p.), LA 4d, column 2 of 8 (day not given)): 99.9 g | fresh body weight ([1]; Treatment 2: LA 3d, inject 5-FU (150 mg/kg i.p.), LA 4d, column 3 of 8 (day not given)): 98.8 g | fresh body weight ([1]; Treatment 2: LA 3d, inject 5-FU (150 mg/kg i.p.), LA 4d, column 4 of 8 (day not given)): 101.9 g | fresh body weight ([1]; Treatment 2: LA 3d, inject 5-FU (150 mg/kg i.p.), LA 4d, column 5 of 8 (day not given)): 108 g | fresh body weight ([1]; Treatment 2: LA 3d, inject 5-FU (150 mg/kg i.p.), LA 4d, column 6 of 8 (day not given)): 110.2 g | fresh body weight ([1]; Treatment 2: LA 3d, inject 5-FU (150 mg/kg i.p.), LA 4d, column 7 of 8 (day not given)): 107.9 g | fresh body weight ([1]; Treatment 2: LA 3d, inject 5-FU (150 mg/kg i.p.), LA 4d, column 8 of 8 (day not given)): 106.2 g | daily food intake ([1]; Treatment 2: LA 3d, inject 5-FU (150 mg/kg i.p.), LA 4d, day 1 (pair fed, before injection)): 4.8 g | daily food intake ([1]; Treatment 2: LA 3d, inject 5-FU (150 mg/kg i.p.), LA 4d, day 2 (pair fed, before injection)): 6.22 g | daily food intake ([1]; Treatment 2: LA 3d, inject 5-FU (150 mg/kg i.p.), LA 4d, day 3 (pair fed, before injection)): 9.22 g | daily food intake ([1]; Treatment 2: LA 3d, inject 5-FU (150 mg/kg i.p.), LA 4d, day 4): 11.3 g | daily food intake ([1]; Treatment 2: LA 3d, inject 5-FU (150 mg/kg i.p.), LA 4d, day 5): 10.4 g | daily food intake ([1]; Treatment 2: LA 3d, inject 5-FU (150 mg/kg i.p.), LA 4d, day 6): 6.8 g | daily food intake ([1]; Treatment 2: LA 3d, inject 5-FU (150 mg/kg i.p.), LA 4d, day 7): 5.9 g | reduction of small intestine dry weight ([1]; only lactalbumin in the diet, 5-FU 150 mg/kg): ~50% | Heum wet weight [2, 5]: 722 mg | Jejunum wet weight [2, 5]: 761 mg | Heum wet weight [2, 6]: 747 mg | Jejunum wet weight [2, 6]: 783 mg | Heum wet weight [2, 7]: 753 mg | Jejunum wet weight [2, 7]: 848 mg
